Calls of active or inactive are those of the source. No cut-off for these calls is given here.
Assays:
[1] = AUCinf in CD-1 mouse at 3 mg/kg, iv; type: ADME, organism-based; parameters: dose 3 mg/kg, route iv; details: in vivo
K562 = experiment: Reversal of vinorelbine resistance in human K562 cells assessed as reduction in cell viability incubated for 72 hrs in presence of vinorelbine (reference value: 5.9+/-0.2 nM); type: functional, cell-based; details: K562, 72 h
KBv200 [2] = experiment: Antitumor activity against human KBv200 cells xenografted in Balb/cA nude mouse assessed as mean tumor volume at 25 mg/kg, ip qd administered for 13 days in presence of vinorelbine; type: functional; details: time 13 day
[3] = Cmax in CD-1 mouse at 25 mg/kg, ip; type: ADME, organism-based; parameters: dose 25 mg/kg, route ip; details: in vivo
[4] = Half life in CD-1 mouse at 3 mg/kg, iv; type: ADME, organism-based; details: in vivo
[5] = Tmax in CD-1 mouse at 30 mg/kg, po; type: ADME, organism-based; details: in vivo
[6] = Toxicity in Balb/cA nude mouse xenografted with human KBv200 cells assessed as mortality at 50 mg/kg, ip qd administered for 13 days in presence of vinorelbine; type: organism-based; details: in vivo, 312 h, time 13 day
[7] = Half life in CD-1 mouse at 30 mg/kg, po; type: ADME, organism-based; details: in vivo
KBv200 [8] = experiment: Downregulation of P-gp mRNA expression level in human KBV200 cells by qRT-PCR analysis; type: functional, cell-based
[9] = molecular target: ATP-dependent translocase ABCB1 (Homo sapiens, UniProt P08183); experiment: Inhibition of P-gp in human KBv200 cells assessed as induction of conformation change by measuring increase in UIC-2 binding level at 50 uM incubated for 10 mins by UIC-2 reactivity shift assay; type: cell-based; details: kbv200, 10 min
Sequence of ATP-dependent translocase ABCB1 (P08183 whole entry): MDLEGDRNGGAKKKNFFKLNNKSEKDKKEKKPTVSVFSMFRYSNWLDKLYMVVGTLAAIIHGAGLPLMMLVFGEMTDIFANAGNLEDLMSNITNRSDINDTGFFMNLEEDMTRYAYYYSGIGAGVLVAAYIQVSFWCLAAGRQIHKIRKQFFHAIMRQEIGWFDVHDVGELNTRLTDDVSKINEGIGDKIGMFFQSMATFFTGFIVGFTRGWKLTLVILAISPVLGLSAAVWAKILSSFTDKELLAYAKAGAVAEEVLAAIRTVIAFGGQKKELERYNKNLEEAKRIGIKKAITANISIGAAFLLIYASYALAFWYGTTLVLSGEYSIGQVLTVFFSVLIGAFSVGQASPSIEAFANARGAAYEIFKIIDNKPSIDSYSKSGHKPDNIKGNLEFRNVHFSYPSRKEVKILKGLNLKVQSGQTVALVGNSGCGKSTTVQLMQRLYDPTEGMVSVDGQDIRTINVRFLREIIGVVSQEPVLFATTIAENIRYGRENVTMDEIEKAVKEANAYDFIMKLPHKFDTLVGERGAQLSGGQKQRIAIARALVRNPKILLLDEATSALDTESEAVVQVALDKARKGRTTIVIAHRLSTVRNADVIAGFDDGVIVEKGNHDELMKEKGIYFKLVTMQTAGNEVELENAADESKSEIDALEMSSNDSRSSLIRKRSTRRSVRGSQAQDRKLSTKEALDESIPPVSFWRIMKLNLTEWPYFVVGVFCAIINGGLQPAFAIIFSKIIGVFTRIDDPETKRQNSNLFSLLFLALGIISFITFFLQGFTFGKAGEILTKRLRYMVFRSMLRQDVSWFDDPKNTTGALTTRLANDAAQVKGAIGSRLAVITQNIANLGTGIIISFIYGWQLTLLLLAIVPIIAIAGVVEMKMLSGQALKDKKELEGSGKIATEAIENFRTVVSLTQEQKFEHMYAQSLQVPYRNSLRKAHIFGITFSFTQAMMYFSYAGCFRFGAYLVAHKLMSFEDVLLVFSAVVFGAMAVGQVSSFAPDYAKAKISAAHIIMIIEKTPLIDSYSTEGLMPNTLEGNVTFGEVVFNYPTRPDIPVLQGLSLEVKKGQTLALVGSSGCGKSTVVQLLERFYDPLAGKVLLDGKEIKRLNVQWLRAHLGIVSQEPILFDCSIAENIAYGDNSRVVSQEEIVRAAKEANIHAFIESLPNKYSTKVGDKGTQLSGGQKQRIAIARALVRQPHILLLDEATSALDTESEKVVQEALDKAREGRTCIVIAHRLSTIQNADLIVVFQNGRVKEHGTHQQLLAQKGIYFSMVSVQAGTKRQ

KBv200 [10] = experiment: Antitumor activity against human KBv200 cells xenografted in Balb/cA nude mouse assessed as mean tumor volume at 50 mg/kg, ip qd administered for 13 days; type: functional; details: time 13 day
KBv200 [11] = experiment: Antitumor activity against human KBv200 cells xenografted in Balb/cA nude mouse assessed as mean tumor volume at 50 mg/kg, ip administered as single dose and measured on day 0; type: functional
[12] = AUCinf in CD-1 mouse at 30 mg/kg, po; type: ADME, organism-based; parameters: dose 30 mg/kg, route po; details: in vivo
KBv200 [13] = experiment: Antitumor activity against human KBv200 cells xenografted in Balb/cA nude mouse assessed as mean tumor volume at 25 mg/kg, ip administered as single dose and measured on day 0 in presence of vinorelbine; type: functional
[14] = Tmax in CD-1 mouse at 25 mg/kg, ip; type: ADME, organism-based; details: in vivo
[15] = Toxicity in Balb/cA nude mouse xenografted with human KBv200 cells assessed as changes in body weight at 50 mg/kg, ip qd administered for 13 days in presence of vinorelbine; type: organism-based; details: in vivo, 312 h, time 13 day
KBv200 [16] = experiment: Antitumor activity against human KBv200 cells xenografted in Balb/cA nude mouse assessed as tumor growth inhibition at 25 mg/kg, ip qd administered for 13 days in presence of vinorelbine; type: functional; details: KBv200, 312 h, time 13 day
[17] = Toxicity in Balb/cA nude mouse xenografted with human KBv200 cells assessed as changes in body weight at 25 mg/kg, ip qd administered for 13 days in presence of vinorelbine; type: organism-based; details: in vivo, 312 h, time 13 day
KBv200 [18] = experiment: Antitumor activity against human KBv200 cells xenografted in Balb/cA nude mouse assessed as T/C ratio at 50 mg/kg, ip qd administered for 13 days in presence of vinorelbine; type: functional; details: time 13 day
[19] = Oral bioavailability in CD-1 mouse at 30 mg/kg; type: ADME, organism-based; details: in vivo
NCI/ADR-RES = experiment: Reversal of vinorelbine resistance in human NCI/ADR-RES cells assessed as reduction in cell viability incubated for 72 hrs in presence of vinorelbine (reference value: 6125.7+/-3267.7 nM); type: functional, cell-based
[20] = Bioavailability in CD-1 mouse at 25 mg/kg, ip; type: ADME, organism-based; details: in vivo
K562/Adr = experiment: Reversal of vinorelbine resistance in human K562/Adr cells assessed as reduction in cell viability incubated for 72 hrs in presence of vinorelbine (reference value: 7320.6+/-2115.2 nM); type: functional, cell-based
KBv200 [21] = experiment: Reversal fold, ratio of vinorelbine IC50 for cytotoxicity against human KBv200 cells over test compound IC50 for reversal of vinorelbine resistance in human KBv200 cells; type: functional
[22] = Toxicity in Balb/cA nude mouse xenografted with human KBv200 cells assessed as changes in body weight at 50 mg/kg, ip qd administered for 13 days; type: organism-based; details: in vivo, 312 h, time 13 day
[23] = AUClast in CD-1 mouse at 30 mg/kg, po; type: ADME, organism-based; parameters: dose 30 mg/kg, route po; details: in vivo
OVCAR-8 = experiment: Reversal of vinorelbine resistance in human OVCAR-8 cells assessed as reduction in cell viability incubated for 72 hrs in presence of vinorelbine (reference value: 16.2+/-4.7 nM); type: functional, cell-based; details: OVCAR-8, 72 h
[24] = Half life in CD-1 mouse at 25 mg/kg, ip; type: ADME, organism-based; details: in vivo
[25] = Cytotoxicity against human L02 cells assessed as reduction in cell viability incubated for 48 hrs by CCK-8 assay; type: toxicity, cell-based
KBv200 [26] = experiment: Antitumor activity against human KBv200 cells xenografted in Balb/cA nude mouse assessed as tumor growth inhibition at 50 mg/kg, ip qd administered for 13 days; type: functional; details: KBv200, 312 h, time 13 day
KBv200 [27] = experiment: Antitumor activity against human KBv200 cells xenografted in Balb/cA nude mouse assessed as mean tumor volume at 50 mg/kg, ip administered as single dose and measured on day 0 in presence of vinorelbine; type: functional
KBv200 [28] = experiment: Reversal of vinorelbine resistance in human KBv200 cells assessed as reduction in cell viability incubated for 72 hrs in presence of vinorelbine (reference value: 224 to 228.30 nM); type: functional, cell-based; details: KBv200, 72 h, read-out: IC50
[29] = Toxicity in Balb/cA nude mouse xenografted with human KBv200 cells assessed as mortality at 50 mg/kg, ip qd administered for 13 days; type: organism-based; details: in vivo, 312 h, time 13 day
[30] = AUCinf in CD-1 mouse at 25 mg/kg, ip; type: ADME, organism-based; parameters: dose 25 mg/kg, route ip; details: in vivo
KBv200 [31] = experiment: Reversal of adriamycin resistance in human KBv200 cells assessed as reduction in cell viability incubated for 72 hrs in presence of adriamycin (reference value: 1291.2+/-308.9 nM); type: functional, cell-based; details: KBv200, 72 h
KBv200 [32] = experiment: Antitumor activity against human KBv200 cells xenografted in Balb/cA nude mouse assessed as T/C ratio at 25 mg/kg, ip qd administered for 13 days in presence of vinorelbine; type: functional; details: time 13 day
[33] = Clearance in CD-1 mouse at 3 mg/kg, iv; type: ADME, organism-based; details: in vivo
[34] = AUClast in CD-1 mouse at 3 mg/kg, iv; type: ADME, organism-based; parameters: dose 3 mg/kg, route iv; details: in vivo
KBv200 [35] = experiment: Antitumor activity against human KBv200 cells xenografted in Balb/cA nude mouse assessed as T/C ratio at 50 mg/kg, ip qd administered for 13 days; type: functional; details: time 13 day
[36] = Cytotoxicity against human HEK293T cells assessed as reduction in cell viability incubated for 48 hrs by CCK-8 assay; type: toxicity, cell-based, HEK-293T
KBv200 [37] = experiment: Antitumor activity against human KBv200 cells xenografted in Balb/cA nude mouse assessed as tumor growth inhibition at 50 mg/kg, ip qd administered for 13 days in presence of vinorelbine; type: functional; details: KBv200, 312 h, time 13 day
KBv200 [38] = experiment: Antitumor activity against human KBv200 cells xenografted in Balb/cA nude mouse assessed as mean tumor volume at 50 mg/kg, ip qd administered for 13 days in presence of vinorelbine; type: functional; details: time 13 day
[39] = AUClast in CD-1 mouse at 25 mg/kg, ip; type: ADME, organism-based; parameters: dose 25 mg/kg, route ip; details: in vivo
KB = experiment: Reversal of vinorelbine resistance in human KB cells assessed as reduction in cell viability incubated for 72 hrs in presence of vinorelbine (reference value: 7.4+/-2.2 nM); type: functional, cell-based
KBv200 [40] = experiment: Reversal of paclitaxel resistance in human KBv200 cells assessed as reduction in cell viability incubated for 72 hrs in presence of paclitaxel (reference value: 392.9+/-196.5 nM); type: functional, cell-based; details: KBv200, 72 h
[41] = Cmax in CD-1 mouse at 30 mg/kg, po; type: ADME, organism-based; parameters: dose 30 mg/kg, route po; details: in vivo
[42] = Toxicity in Balb/cA nude mouse xenografted with human KBv200 cells assessed as mortality at 25 mg/kg, ip qd administered for 13 days in presence of vinorelbine; type: organism-based; details: in vivo, 312 h, time 13 day

Work on O=C1CCCCCCCCCCCNC(=O)[C@@H](Cc2ccccc2)NC(=O)/C(c2cccc3ccccc23)=C\C=C(\c2ccccc2)CN1 yielded an AUC(0-inf) [1] of 4350 ng·h/mL, an IC50 (K562) of 0.8 nM and an Activity (KBv200 [2]) of 1384 mm3. The Cmax [3] was 1930 ng/mL, the half-life [4] was 2.08 h and the Tmax [5] was 3 h. For the same molecule, the Activity [6] was “Non-Toxic”, the half-life [7] was 2.56 h and the Activity (KBv200 [8]) was “inactive”. The Activity [9] was “Active”, the Activity (KBv200 [10]) was 1703.9 mm3 and the Activity (KBv200 [11]) was 119.8 mm3. For the same molecule, the AUC(0-inf) [12] was 9490 ng·h/mL, the Activity (KBv200 [13]) was 122 mm3 and the Tmax [14] was 2.67 h. The Activity [15] was “Non-Toxic”, the inhibition in vivo at 25 mg/kg (KBv200 [16]) was 35% and the Activity [17] was “Non-Toxic”. It also gave a T/C (KBv200 [18]) of 48%, a bioavailability [19] of 21.9% and an IC50 (NCI/ADR-RES) of 116 nM. For the same molecule, the bioavailability [20] was 47.3%, the IC50 (K562/Adr) was 75.9 nM and the “Ratio IC50” value (KBv200 [21]) was 432. For the same molecule, the Activity [22] was “Non-Toxic”, the AUC(0-t) [23] was 9470 ng·h/mL and the IC50 (OVCAR-8) was 4.6 nM. It also gave a half-life [24] of 11.9 h, an IC50 at 48 h [25] greater than 100000 nM and an inhibition in vivo at 50 mg/kg (KBv200 [26]) of 19%. For the same molecule, the Activity (KBv200 [27]) was 121.6 mm3, the IC50 (KBv200 [28]) was 0.02 nM and the Activity [29] was “Non-Toxic”. It also gave an AUC(0-inf) [30] of 20600 ng·h/mL, an IC50 (KBv200 [31]) of 37.5 nM and a T/C (KBv200 [32]) of 65%. For the same molecule, the clearance [33] was 11.9 mL/min/kg, the AUC(0-t) [34] was 4320 ng·h/mL and the T/C (KBv200 [35]) was 113%. It also gave an IC50 at 48 h [36] greater than 100000 nM, an inhibition in vivo at 50 mg/kg (KBv200 [37]) of 52% and an Activity (KBv200 [38]) of 1059.5 mm3. The AUC(0-t) [39] was 17000 ng·h/mL, the IC50 (KB) was 0.7 nM and the IC50 (KBv200 [40]) was 0.9 nM. The Cmax [41] was 2670 ng/mL and the Activity [42] was “Non-Toxic”.
